Assay results reported in publication PMC5711809, “Bayesian Analysis of MicroScale Thermophoresis Data to Quantify Affinity of Protein:Protein Interactions with Human Survivin” (Scientific Reports, 2017).
“And” between values parts separate entries of the source, which are not always exact repeats. Equal values may be shown once. Read-outs that look alike come from different tables or passages of the source. Peptide text beside a SMILES is read from it.

Assays:
human survivin [1] = biological target: T1, human survivin (Homo sapiens, UniProt O15392); assay: PEPperCHIP peptide microarray, survivin binding to laser printed overlapping peptides; details: survivin 1, 10 and 100 μg/ml; secondary 6X His Tag Antibody DyLight680 antibody; fluorescence, LI-COR Odyssey; duplicate spots
T1 construct: His8 (pHIS8 vector); made in house; host or cells: E. coli BL21(DE3) star
T1 sequence (O15392 whole entry): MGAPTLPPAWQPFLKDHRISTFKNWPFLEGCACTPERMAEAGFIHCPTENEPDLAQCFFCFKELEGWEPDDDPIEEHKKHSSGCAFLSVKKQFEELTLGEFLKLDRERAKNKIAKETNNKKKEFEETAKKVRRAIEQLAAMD
Method: We tested the Bayesian inference method on potential binding interactions of survivin identified by PEPperCHIP Peptide Microarray (PEPperPRINT, GmbH, Heidelberg, Germany). These microarrays consisted of overlapping peptides originating from candidate proteins from the human proteome including hSgol1, hSgol2 and the N-terminal region of borealin (1–93). The peptides were generated by peptide laser printing[25] (Fig. 2). […] The spots are consistently visible at 1, 10 and 100 μg/ml survivin concentrations in the assay buffer (Fig. 2). Quantitative analysis of the fluorescent intensities of the specific and control antibodies for borealin, hSgo1l and hSgol2 are shown in Supplementary Fig. S1, S2 and S3, respectively.
Pre-staining of one of the PEPperCHIP® Peptide Microarrays was done with the secondary 6X His Tag Antibody DyLight680 antibody at a dilution of 1:1000 and with monoclonal anti-HA (12CA5)-DyLight800 control antibody at a dilution of 1:1000 to investigate background interactions with the protein-derived peptides that could interfere with the main assays. Subsequent incubation of other peptide microarray copies with survivin at concentrations of 1 µg/ml, 10 µg/ml and 100 µg/ml in incubation buffer was followed by staining with the secondary 6X His Tag Antibody DyLight680 (Rockland Immunochemicals) antibody and the monoclonal anti-HA (12CA5)-DyLight800 control antibody (Rockland Immunochemicals) as well as by read-out at scanning intensities of 7/7 (red/green). HA and His tag control peptides were simultaneously stained as internal quality control to confirm the assay quality and to facilitate grid alignment for data quantification. Read-out was performed with a LI-COR Odyssey Imaging System, while quantification of spot intensities and peptide annotation were done with PepSlide® Analyzer.

human survivin [2] = biological target: T1, human survivin; assay: MicroScale Thermophoresis (MST) with chemically labelled survivin; format: binding; details: Buffer B (50 mM Tris pH 7.4, 150 mM NaCl, 10 mM MgCl2, 0.05% Tween-20, 1 mM DTT), 24 °C, three independent dilution series, read-out: KD, Robust (Bayesian)
Method: Survivin was expressed in E.coli BL21(DE3) star (Merck) cells using the pHIS8 expression vector used by Verdecia et al.[18] The expression was induced at OD600 0.6–0.8 in Luria Bertani (LB) media by 0.5 mM IPTG and incubated during 3–4 h at 30 °C. The cells were harvested at 6000 g during 20 min and resuspended in lysis buffer containing 50 mM Tris pH 8, 500 mM NaCl, 10 mM imidazole, 0.25 mM Pefabloc®SC (Sigma), […] DNAse (Sigma) and 0.2 mg/ml Lysozyme (Sigma). The cells were lysed with a high pressure homogenizer, using 3 cycles of […]. Survivin was purified by Ni^2+ chelation chromatography using 5 ml HisTrap FF column (GE Healthcare). Overnight dialysis in 50 mM Tris pH8, 150 mM NaCl and 1 mM DTT buffer and a gel filtration purification using a Superdex 75 100/300GL column (GE Healthcare) were done before chemical labelling. […] The borealin^6–20, hSgol1^291–312 and hSgol2^1066–1085 peptides were chemically synthetized (Genscript).
MicroScale Thermophoresis experiments were performed according to the NanoTemper technologies protocol in a Monolith NT.115 (green/blue) instrument (NanoTemper Technologies). […]
Survivin was labelled with the MO-L005 Monolith™ Protein Labeling Kit GREEN-MALEIMIDE (Cysteine Reactive) from NanoTemper Technologies. Peptides derived from hSgol1^291–312 ([…]) and hSgol2^1066–1085 ([…]) were analyzed in Buffer B (50 mM Tris pH 7.4, 150 mM NaCl, 10 mM MgCl2, 0.05% Tween-20 and 1 mM DTT). All samples were measured after an incubation of 5 min (according to “User Starting Guide Monolith® NT.115”).
The experiments were performed using 20% and 40% MST power and between 20–80% LED power at 24 °C. The MST traces were recorded using the standard parameters: 5 s MST power off, 30 s MST power on and 5 s MST power off. The reported measurement values are the combination of two effects: the fast, local environment dependent responses of the fluorophore to the temperature jump and the slower diffusive thermophoresis fluorescence changes. […]

human survivin [3] = biological target: T2, human survivin (human, UniProt O15392 1-142, GREEN-MALEIMIDE (cysteine reactive) fluorescent label, in the MST experiments only); assay: peptide or protein array; PEPperCHIP microarray of overlapping printed peptides; incubated with survivin at 1, 10 and 100 µg/ml in incubation buffer; detected with 6X His Tag Antibody DyLight680; details: both partners purified
T2 construct: survivin, human, 16 kDa; The His tag is detected on the array by a 6X His Tag antibody; for the MST no cleavage of the tag is told; On the array the protein was unlabelled, in the MST labelled on cysteine; source: E. coli BL21(DE3) star, purified (Ni2+ chelation chromatography, gel filtration)
T2 sequence (O15392 whole entry): as above

human survivin [4] = biological target: T2, human survivin; assay: MST; labelled survivin held constant, serial dilution of the peptide; Buffer A (50 mM Tris pH 8.0, 150 mM NaCl, 1 mM DTT, 0.05% Tween); 5 min incubation; 24 °C; T-jump + thermophoresis; three dilution series; details: both partners purified
human survivin [5] = biological target: T2, human survivin; assay: MST; labelled survivin held constant, serial dilution of the peptide; Buffer B (50 mM Tris pH 7.4, 150 mM NaCl, 10 mM MgCl2, 0.05% Tween-20, 1 mM DTT); 5 min incubation; 24 °C; T-jump + thermophoresis; three dilution series; details: both partners purified
human survivin [6] = biological target: T2, human survivin; assay: as above; details: both partners purified; remark: listed apart in the source
[7] = 5 min incubation, median and HDI 95% interval of sampled posterior

With “DTQERKREEKRKANR [adjacent hSgol1 peptide, laser printed on microarray]” the “microarray response to survivin (spot signal)” value (“microarray response to survivin” below) (human survivin [1]) was “to some extent”.

In the case of “HQSSFLLSASKKKRI [other basic peptide on the microarray]”, the “microarray response to survivin” value (human survivin [1]) is reported as “did not react with survivin in a similar manner”.

“EVSKIVTVSTGIKKK [other basic peptide on the microarray]” was tested, and the “microarray response to survivin” value (human survivin [1]) was “did not react with survivin in a similar manner”.

“KVNKMTSKSKKRKTS [hSgol2 peptide, laser printed on microarray]” was tested, and the “microarray response to survivin” value (human survivin [1]) was “main responses with the clearest spot morphologies”.

For “SPTDPKACNWKKYKF [other basic peptide on the microarray]”, the “microarray response to survivin” value (human survivin [1]) was “did not react with survivin in a similar manner”.

With “KTFRKVKDSSSEKKR [other basic peptide on the microarray]” the “microarray response to survivin” value (human survivin [1]) was “did not react with survivin in a similar manner”.

In the case of “KREEKRKANRRKSKR [basic hSgol1 peptide, laser printed on microarray]”, the “microarray response to survivin” value (human survivin [1]) is reported as “main responses with the clearest spot morphologies”.

For “ECQVKKVNKMTSKSK [hSgol2 peptide, laser printed on microarray]”, the “microarray response to survivin” value (human survivin [1]) was “main responses with the clearest spot morphologies”.

With `CSCC[C@H](NC(=O)[C@H](CCCNC(=N)N)NC(=O)[C@H](CCCCN)NC(=O)[C@H](CO)NC(=O)[C@H](CCCCN)NC(=O)[C@H](CCCNC(=N)N)NC(=O)[C@H](CCCNC(=N)N)NC(=O)[C@H](CC(N)=O)NC(=O)[C@H](C)NC(=O)[C@H](CCCCN)NC(=O)[C@H](CCCNC(=N)N)NC(=O)[C@H](CCCCN)NC(=O)[C@H](CCC(=O)O)NC(=O)[C@H](CCC(=O)O)NC(=O)[C@H](CCCNC(=N)N)NC(=O)[C@@H](N)CCCCN)C(=O)N[C@@H](CO)C(=O)N[C@@H](CCCCN)C(=O)N[C@@H](Cc1ccc(O)cc1)C(=O)N[C@@H](CCCCN)C(=O)N[C@@H](CCC(=O)O)C(=O)N[C@@H](CC(N)=O)C(=O)O` [hSgol1^291–312] (H-KREEKRKANRRKSKRMSKYKEN-OH) the Kd (human survivin [2]; [7]) was 80.7 µM and the Kd (human survivin [2]; 120 min incubation, median and HDI 95% interval, incubation time affected adversely the sample quality) was 53.6 µM.

`CSCC[C@H](NC(=O)[C@H](CCCCN)NC(=O)[C@H](CC(N)=O)NC(=O)[C@@H](NC(=O)[C@H](CCCCN)NC(=O)[C@H](CCCCN)NC(=O)[C@@H](NC(=O)[C@H](CCC(N)=O)NC(=O)[C@H](CS)NC(=O)[C@@H](N)CCC(=O)O)C(C)C)C(C)C)C(=O)N[C@H](C(=O)N[C@@H](CO)C(=O)N[C@@H](CCCCN)C(=O)N[C@@H](CO)C(=O)N[C@@H](CCCCN)C(=O)N[C@@H](CCCCN)C(=O)N[C@@H](CCCNC(=N)N)C(=O)N[C@@H](CCCCN)C(=O)N[C@H](C(=O)N[C@@H](CO)C(=O)O)[C@@H](C)O)[C@@H](C)O` [hSgol2^1066–1085] (H-ECQVKKVNKMTSKSKKRKTS-OH) showed a Kd (human survivin [2]; [7]) of 1.6 µM.

“RKANRRKSKRMSKYK [basic hSgol1 peptide, laser printed on microarray]” was tested, and the “microarray response to survivin” value (human survivin [1]) was “main responses with the clearest spot morphologies”.

B1: hSgol1 array peptide RKANRRKSKRMSKYK (peptide)
peptide: RKANRRKSKRMSKYK
notes: human Shugoshin-like 1 (hSgol1), 15-mer of the overlapping peptide array; source: laser-printed on the PEPperCHIP peptide microarray (PEPperPRINT)
B1: binds (human survivin [3]).

B2: borealin^6–20 peptide (peptide)
peptide: GSSRVAKTNSLRRRK
notes: borealin, human, residues 6-20; source: synthetic peptide (Genscript) for MST; laser-printed on the PEPperCHIP peptide microarray (PEPperPRINT)
In the case of B2, the Kd (human survivin [4]) is reported as 10.8 µM and 10.2 µM and 10 µM.

B3: hSgol2^1066–1085 peptide (peptide)
peptide: ECQVKKVNKMTSKSKKRKTS
notes: human Shugoshin-like 2 (hSgol2), residues 1066-1085; also called hSgol2 peptide; source: synthetic peptide (Genscript)
B3 was tested, and the Kd (human survivin [5]) was 1.6 µM and 1.4 µM.

B4: hSgol1 array peptide KREEKRKANRRKSKR (peptide)
peptide: KREEKRKANRRKSKR
notes: as for B1
B4: binds (human survivin [3]).

B5: hSgol2 array peptide ECQVKKVNKMTSKSK (peptide)
peptide: ECQVKKVNKMTSKSK
notes: human Shugoshin-like 2 (hSgol2), 15-mer of the overlapping peptide array; source: laser-printed on the PEPperCHIP peptide microarray (PEPperPRINT)
B5: binds (human survivin [3]).

B6: hSgol1^291–312 peptide (peptide)
peptide: KREEKRKANRRKSKRMSKYKEN
notes: human Shugoshin-like 1 (hSgol1), residues 291-312, with the KEN motif; also called hSgol1 peptide; source: synthetic peptide (Genscript)
B6 gave a Kd (human survivin [6]) of 80.9 µM.

B7: hSgol2 array peptide KVNKMTSKSKKRKTS (peptide)
peptide: KVNKMTSKSKKRKTS
notes: as for B5
B7: binds (human survivin [3]).
